Assay results from patent publication US6706740B2, “Fungicidal heterocyclic aromatic amides and their compositions, methods of use and preparation” (Dow AgroSciences LLC, priority 1999, dated 2004).

tested on: Rhizoctonia solani (RHIZSO); assay: microbe, parasite or virus in culture; format: cell-based; conditions: Rhizoctonia solani, read-out: RHIZSO in vitro Growth Inhibition

| Structure (SMILES) | inhibition at 25 ppm [%] |
| --- | --- |
| COc1ccnc(C(=O)N[C@@H]2OC[C@@H](OCc3ccccc3)[C@H](OCc3ccccc3)[C@H]2OCc2ccccc2)c1O [Compound 332] | < 80 |
| O=C(NC(Cc1ccccc1)c1ccccc1)c1nc(Br)ccc1O (centres unmarked) [Compound 491] | < 80 |
| O=C(Nc1cccc(Oc2ccccc2C(F)(F)F)c1)c1nc(Br)ccc1O [Compound 494] | < 80 |
| COc1ccnc(C(=O)NC(COC(=O)CC(C)O[Si](C)(C)C(C)(C)C)C(=O)OC(C)C)c1O (centres unmarked) [Compound 354] | < 80 |

tested on: Septoria tritici—SEPTTR; assay: Leaf Blotch of Wheat, in vivo whole plant, 24 Hour Protectant; conditions: Zymoseptoria tritici, 24 h, 100 ppm spray, wheat, 24 hour protectant; control of fungal infection vs untreated plants; read-out: SEPTTR in vivo 1 Day Protectant

| Structure (SMILES) | pest or weed control at 100 ppm [%] |
| --- | --- |
| COc1ccnc(C(=O)N[C@@H]2OC[C@@H](OCc3ccccc3)[C@H](OCc3ccccc3)[C@H]2OCc2ccccc2)c1O [Compound 332] | 25 to 74 |
| COc1ccnc(C(=O)NC(COC(=O)CC(C)O[Si](C)(C)C(C)(C)C)C(=O)OC(C)C)c1O (centres unmarked) [Compound 354] | < 25 |

same assay, conditions: Zymoseptoria tritici, 24 h, wheat plants sprayed at 100 ppm, inoculated after 24 hours; control of fungal infection vs untreated plants; read-out: SEPTTR in vivo 1 Day Protectant

| Structure (SMILES) | pest or weed control at 100 ppm [%] |
| --- | --- |
| O=C(NC(Cc1ccccc1)c1ccccc1)c1nc(Br)ccc1O (centres unmarked) [Compound 491] | < 25 |
| O=C(Nc1cccc(Oc2ccccc2C(F)(F)F)c1)c1nc(Br)ccc1O [Compound 494] | 25 to 74 |

tested on: Erysiphe graminis—ERYSGT; assay: Powdery Mildew of Wheat, in vivo whole plant, 24 Hour Protectant; conditions: Erysiphe; 100 ppm spray, wheat, 24 hour protectant; control of fungal infection vs untreated plants; read-out: ERYSGT in vivo 1 Day Protectant

| Structure (SMILES) | pest or weed control at 100 ppm [%] |
| --- | --- |
| COc1ccnc(C(=O)N[C@@H]2OC[C@@H](OCc3ccccc3)[C@H](OCc3ccccc3)[C@H]2OCc2ccccc2)c1O [Compound 332] | < 25 |
| COc1ccnc(C(=O)NC(COC(=O)CC(C)O[Si](C)(C)C(C)(C)C)C(=O)OC(C)C)c1O (centres unmarked) [Compound 354] | 25 to 74 |

same assay, conditions: Erysiphe; wheat plants sprayed at 100 ppm, inoculated after 24 hours; control of fungal infection vs untreated plants; read-out: ERYSGT in vivo 1 Day Protectant

| Structure (SMILES) | pest or weed control at 100 ppm [%] |
| --- | --- |
| O=C(NC(Cc1ccccc1)c1ccccc1)c1nc(Br)ccc1O (centres unmarked) [Compound 491] | < 25 |
| O=C(Nc1cccc(Oc2ccccc2C(F)(F)F)c1)c1nc(Br)ccc1O [Compound 494] | < 25 |

tested on: Stagonospora nodorum (Leptosphaeria nodorum—LEPTNO); assay: In vitro fungal growth inhibition, Stagonospora nodorum (LEPTNO); format: cell-based; conditions: Leptosphaeria, read-out: LEPTNO in vitro Growth Inhibition

| Structure (SMILES) | inhibition at 25 ppm [%] |
| --- | --- |
| COc1ccnc(C(=O)NC(COC(=O)CC(C)O[Si](C)(C)C(C)(C)C)C(=O)OC(C)C)c1O (centres unmarked) [Compound 354] | < 80 |

same assay, conditions: Leptosphaeria; 25 ppm in growth medium; read-out: LEPTNO in vitro Growth Inhibition

| Structure (SMILES) | inhibition at 25 ppm [%] |
| --- | --- |
| COc1ccnc(C(=O)N[C@@H]2OC[C@@H](OCc3ccccc3)[C@H](OCc3ccccc3)[C@H]2OCc2ccccc2)c1O [Compound 332] | < 80 |

same assay, conditions: Leptosphaeria; 25 ppm in the growth medium; read-out: LEPTNO in vitro Growth Inhibition

| Structure (SMILES) | inhibition at 25 ppm [%] |
| --- | --- |
| O=C(NC(Cc1ccccc1)c1ccccc1)c1nc(Br)ccc1O (centres unmarked) [Compound 491] | < 80 |
| O=C(Nc1cccc(Oc2ccccc2C(F)(F)F)c1)c1nc(Br)ccc1O [Compound 494] | < 80 |

tested on: Phytophthora infestans (PHYTIN); assay: microbe, parasite or virus in culture; format: cell-based; conditions: Phytophthora infestans, read-out: PHYTIN in vitro Growth Inhibition

| Structure (SMILES) | inhibition at 25 ppm [%] |
| --- | --- |
| COc1ccnc(C(=O)N[C@@H]2OC[C@@H](OCc3ccccc3)[C@H](OCc3ccccc3)[C@H]2OCc2ccccc2)c1O [Compound 332] | < 80 |
| O=C(NC(Cc1ccccc1)c1ccccc1)c1nc(Br)ccc1O (centres unmarked) [Compound 491] | > 80 |
| O=C(Nc1cccc(Oc2ccccc2C(F)(F)F)c1)c1nc(Br)ccc1O [Compound 494] | < 80 |
| COc1ccnc(C(=O)NC(COC(=O)CC(C)O[Si](C)(C)C(C)(C)C)C(=O)OC(C)C)c1O (centres unmarked) [Compound 354] | < 80 |

tested on: Magnaporthe grisea (Pyricularia oryzae—PYRIOR); assay: microbe, parasite or virus in culture; format: cell-based; conditions: Pyricularia oryzae, read-out: PYRIOR in vitro Growth Inhibition

| Structure (SMILES) | inhibition at 25 ppm [%] |
| --- | --- |
| COc1ccnc(C(=O)N[C@@H]2OC[C@@H](OCc3ccccc3)[C@H](OCc3ccccc3)[C@H]2OCc2ccccc2)c1O [Compound 332] | < 80 |
| O=C(NC(Cc1ccccc1)c1ccccc1)c1nc(Br)ccc1O (centres unmarked) [Compound 491] | < 80 |
| O=C(Nc1cccc(Oc2ccccc2C(F)(F)F)c1)c1nc(Br)ccc1O [Compound 494] | < 80 |
| COc1ccnc(C(=O)NC(COC(=O)CC(C)O[Si](C)(C)C(C)(C)C)C(=O)OC(C)C)c1O (centres unmarked) [Compound 354] | < 80 |

tested on: Ustilago maydis (USTIMA); assay: microbe, parasite or virus in culture; format: cell-based; conditions: Mycosarcoma maydis, read-out: USTIMA in vitro Growth Inhibition

| Structure (SMILES) | inhibition at 25 ppm [%] |
| --- | --- |
| COc1ccnc(C(=O)N[C@@H]2OC[C@@H](OCc3ccccc3)[C@H](OCc3ccccc3)[C@H]2OCc2ccccc2)c1O [Compound 332] | < 80 |
| O=C(NC(Cc1ccccc1)c1ccccc1)c1nc(Br)ccc1O (centres unmarked) [Compound 491] | < 80 |
| O=C(Nc1cccc(Oc2ccccc2C(F)(F)F)c1)c1nc(Br)ccc1O [Compound 494] | < 80 |
| COc1ccnc(C(=O)NC(COC(=O)CC(C)O[Si](C)(C)C(C)(C)C)C(=O)OC(C)C)c1O (centres unmarked) [Compound 354] | < 80 |

tested on: Leptosphaeria nodorum—LEPTNO; assay: Glume Blotch of Wheat, in vivo whole plant, 24 Hour Protectant; conditions: Leptosphaeria; 100 ppm spray, wheat, 24 hour protectant; control of fungal infection vs untreated plants; read-out: LEPTNO in vivo 1 Day Protectant

| Structure (SMILES) | pest or weed control at 100 ppm [%] |
| --- | --- |
| COc1ccnc(C(=O)N[C@@H]2OC[C@@H](OCc3ccccc3)[C@H](OCc3ccccc3)[C@H]2OCc2ccccc2)c1O [Compound 332] | 25 to 74 |
| COc1ccnc(C(=O)NC(COC(=O)CC(C)O[Si](C)(C)C(C)(C)C)C(=O)OC(C)C)c1O (centres unmarked) [Compound 354] | < 25 |

same assay, conditions: Leptosphaeria; wheat plants sprayed at 100 ppm, inoculated after 24 hours; control of fungal infection vs untreated plants; read-out: LEPTNO in vivo 1 Day Protectant

| Structure (SMILES) | pest or weed control at 100 ppm [%] |
| --- | --- |
| O=C(NC(Cc1ccccc1)c1ccccc1)c1nc(Br)ccc1O (centres unmarked) [Compound 491] | < 25 |
| O=C(Nc1cccc(Oc2ccccc2C(F)(F)F)c1)c1nc(Br)ccc1O [Compound 494] | < 25 |

tested on: Phytophthora infestans—PHYTIN; assay: whole plant or invertebrate; format: in vivo; conditions: Phytophthora, in Solanum lycopersicum, 24 h, read-out: PHYTIN in vivo 1 Day Protectant

| Structure (SMILES) | pest or weed control at 100 ppm [%] |
| --- | --- |
| COc1ccnc(C(=O)N[C@@H]2OC[C@@H](OCc3ccccc3)[C@H](OCc3ccccc3)[C@H]2OCc2ccccc2)c1O [Compound 332] | < 25 |
| O=C(NC(Cc1ccccc1)c1ccccc1)c1nc(Br)ccc1O (centres unmarked) [Compound 491] | < 25 |
| O=C(Nc1cccc(Oc2ccccc2C(F)(F)F)c1)c1nc(Br)ccc1O [Compound 494] | < 25 |
| COc1ccnc(C(=O)NC(COC(=O)CC(C)O[Si](C)(C)C(C)(C)C)C(=O)OC(C)C)c1O (centres unmarked) [Compound 354] | < 25 |

tested on: Mycosphaerella graminicola (Septoria tritici—SEPTTR); assay: In vitro fungal growth inhibition, Mycosphaerella graminicola (SEPTTR); format: cell-based; conditions: Zymoseptoria tritici, read-out: SEPTTR in vitro Growth Inhibition

| Structure (SMILES) | inhibition at 25 ppm [%] |
| --- | --- |
| COc1ccnc(C(=O)NC(COC(=O)CC(C)O[Si](C)(C)C(C)(C)C)C(=O)OC(C)C)c1O (centres unmarked) [Compound 354] | < 80 |

same assay, conditions: Zymoseptoria tritici; 25 ppm in growth medium; read-out: SEPTTR in vitro Growth Inhibition

| Structure (SMILES) | inhibition at 25 ppm [%] |
| --- | --- |
| COc1ccnc(C(=O)N[C@@H]2OC[C@@H](OCc3ccccc3)[C@H](OCc3ccccc3)[C@H]2OCc2ccccc2)c1O [Compound 332] | < 80 |

same assay, conditions: Zymoseptoria tritici; 25 ppm in the growth medium; read-out: SEPTTR in vitro Growth Inhibition

| Structure (SMILES) | inhibition at 25 ppm [%] |
| --- | --- |
| O=C(NC(Cc1ccccc1)c1ccccc1)c1nc(Br)ccc1O (centres unmarked) [Compound 491] | < 80 |
| O=C(Nc1cccc(Oc2ccccc2C(F)(F)F)c1)c1nc(Br)ccc1O [Compound 494] | < 80 |

tested on: Puccinia recondita—PUCCRT; assay: Brown Rust of Wheat, in vivo whole plant, 24 Hour Protectant; conditions: 100 ppm spray, wheat, 24 hour protectant; control of fungal infection vs untreated plants

| Structure (SMILES) | PUCCRT in vivo 1 Day Protectant |
| --- | --- |
| COc1ccnc(C(=O)NC(COC(=O)CC(C)O[Si](C)(C)C(C)(C)C)C(=O)OC(C)C)c1O (centres unmarked) [Compound 354] | + + |

same assay, conditions: Puccinia; 100 ppm spray, wheat, 24 hour protectant; control of fungal infection vs untreated plants; read-out: PUCCRT in vivo 1 Day Protectant

| Structure (SMILES) | pest or weed control at 100 ppm [%] |
| --- | --- |
| COc1ccnc(C(=O)N[C@@H]2OC[C@@H](OCc3ccccc3)[C@H](OCc3ccccc3)[C@H]2OCc2ccccc2)c1O [Compound 332] | < 25 |

same assay, conditions: Puccinia; wheat plants sprayed at 100 ppm, inoculated after 24 hours; control of fungal infection vs untreated plants; read-out: PUCCRT in vivo 1 Day Protectant

| Structure (SMILES) | pest or weed control at 100 ppm [%] |
| --- | --- |
| O=C(NC(Cc1ccccc1)c1ccccc1)c1nc(Br)ccc1O (centres unmarked) [Compound 491] | < 25 |
| O=C(Nc1cccc(Oc2ccccc2C(F)(F)F)c1)c1nc(Br)ccc1O [Compound 494] | < 25 |
